Test system: 282377-053-R-J1-PDC complex spheroid viability
Experiment: Anticancer human tumor 282377-053-R-J1-PDC patient-derived colon adenocarcinoma cell line growth inhibition [RAS]
Details: for IC50: curve of first compound; for viability, T/C: stronger effect = lower value
Description: RAS pathway inhibitors in Combinations in Complex Spheroids
A high-throughput screen of multi-cell type tumor spheroids was designed to identify active combinations of RAS pathway inhibitors and targeted small molecules. Complex spheroids include a stromal component modeled by human endothelial cells (HUVEC) and fibroblasts modeled by human mesenchymal stem cells (MSCs). The concentration ranges selected for each drug and investigational agent were based upon clinically achievable concentrations if the clinical Cmax of the agent was known.
Compounds. The drugs and investigational agents: abemaciclib (NSC768073), cobimetinib (NSC768068), divarasib (GDC6063, NSC841802), docetaxel (NSC628503), GDC-1971 (RLY-1971, NSC841576), gemcitabine (NSC613327), inavolisib (NSC800729), ipatasertib (NSC767898), KB-0742 (NSC834161), MRTX-1133 (NSC836407), osimertinib (NSC779217), RMC-4630 (NSC839698), RMC-6236 (NSC851965), RMC-6291 (NSC852671), Ro-3306 (NSC812927), sapanisertib (NSC764658), SN-38 (NSC673596), staurosporine (NSC755774), SY5609 (NSC837396), and tovorafenib (DAY101, NSC766906), were obtained from the National Cancer Institute (NCI) Developmental Therapeutics Program Chemical Repository. The FDA-approved anticancer drug set is available from the NCI Developmental Therapeutics Program. […] The stock solutions were prepared in dimethyl sulfoxide (DMSO, Sigma-Aldrich, St. Louis, MO, cat. D2650) at 800-fold the tested concentration and stored at -70 degrees C prior to their use. All drugs and investigational agents were tested over a range starting from a high concentration at or near the clinical Cmax and decreasing in half-log increments. If the clinical Cmax for an agent had not been determined, the highest concentration tested was 10 microM.
Cell Culture. All cells were maintained in an incubator at 37 degrees C and 5% CO2 with 95% humidity. The PDC lines were cultured according to standard operating procedures established by the NCI PDMR. All PDCs were thawed and cultured in Matrigel-coated flasks prepared with a working solution of 1X Ham's F-12 nutrient mix, without supplementation (Invitrogen, Waltham, MA, cat. 11765054), 100 U/mL penicillin-streptomycin (Invitrogen, cat. 15140122), and 2.5% Matrigel (Corning Inc., Corning, NY, cat. 354248) for the first three passages. The 362531-283-R-J2-PDC and 782815-120-R-J1-PDC lines were cultured in 6C/Colon 1B media, which includes advanced DMEM/F-12 (Thermo Fisher Scientific, cat. 12634028), 10 mM HEPES (Thermo Fisher Scientific, cat. 15630080), 1X GlutaMAX supplement (Thermo Fisher Scientific, cat. 35050061), 0.1 mg/mL primocin (InvivoGen, San Diego, CA, cat. ant-pm-2), 10% defined fetal bovine serum, heat inactivated (HyClone Laboratories Inc., Logan, UT, cat. SH30070.03HI), 50% L-WRN conditioned media (ATCC, cat. CRL-3276), 1.25 mM N-Acetyl-L-cysteine (Sigma-Aldrich, cat. A9165), 10 mM nicotinamide (Sigma-Aldrich, cat. N0636), 1X B-27 supplement (Thermo Fisher Scientific, cat. 17504044), 1X N-2 supplement (Thermo Fisher Scientific, cat. 17502048), 50 ng/mL human EGF (Thermo Fisher Scientific, cat. PHG0311), and 10 microM Y-27632 dihydrochloride (Tocris Bioscience, cat. 1254). The K12877-001-R-J1-PDC line was cultured in 6I media, which includes all 6C/Colon 1B media plus 10 ng/mL human FGF-10 (PeproTech, cat. 100-26), 1 ng/mL human FGF-2 (PeproTech, cat. 100-18B), 1 µM prostaglandin E2 (Tocris Bioscience, cat. 2296), […] hydrocortisone (Sigma-Aldrich, cat. H4001), and […] bovine insulin (Sigma-Aldrich, cat. I6634). The K86415-001-R-J1-PDC line was cultured in 6D media, which includes all 6C/Colon 1B media components minus the L-WRN conditioned media. The 485176-168-R4-J1-PDC was cultured in PANC media, which includes all 6C/Colon 1B media plus 100 ng/mL human FGF-10 (PeproTech, cat. 100-26), 500 nM SB-431542 (Selleckchem, cat. S1067), and 10 nM gastrin (Tocris Bioscience, cat. 3006). […]

[1] = second compound 0.0316 µM, first compound 0.0316 µM
[2] = second compound 0.0316 µM, first compound 0.1 µM
[3] = second compound 0.0316 µM, first compound 0.316 µM
[4] = second compound 0.0316 µM, first compound 1 µM
[5] = second compound 0.1 µM, first compound 0.0316 µM
[6] = second compound 0.1 µM, first compound 0.1 µM
[7] = second compound 0.1 µM, first compound 0.316 µM
[8] = second compound 0.1 µM, first compound 1 µM
[9] = second compound 0.316 µM, first compound 0.0316 µM
[10] = second compound 0.316 µM, first compound 0.1 µM
[11] = second compound 0.316 µM, first compound 0.316 µM
[12] = second compound 0.316 µM, first compound 1 µM
[13] = second compound 1 µM, first compound 0.0316 µM
[14] = second compound 1 µM, first compound 0.1 µM
[15] = second compound 1 µM, first compound 0.316 µM
[16] = second compound 1 µM, first compound 1 µM
[17] = second compound 3.16 µM, first compound 0.0316 µM
[18] = second compound 3.16 µM, first compound 0.1 µM
[19] = second compound 3.16 µM, first compound 0.316 µM
[20] = second compound 3.16 µM, first compound 1 µM
[21] = second compound 10 µM, first compound 0.0316 µM
[22] = second compound 10 µM, first compound 0.1 µM
[23] = second compound 10 µM, first compound 0.316 µM
[24] = second compound 10 µM, first compound 1 µM
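Also: spheroids exposed to agents for seven days before readout.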
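For viability, T/C in this document: luminescence viability as percent of DMSO vehicle control wells.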

## CCN1CCN(Cc2ccc(Nc3ncc(F)c(-c4cc(F)c5nc(C)n(C(C)C)c5c4)n3)nc2)CC1 + C#Cc1c(F)ccc2cc(O)cc(-c3ncc4c(N5CC6CCC(C5)N6)nc(OCC56CCCN5CC(F)C6)nc4c3F)c12
Second compound 0.0316 µM
  IC50: > 1 µM
Second compound 0.1 µM
  IC50: > 1 µM
Second compound 0.316 µM
  IC50: > 1 µM
Second compound 1 µM
  IC50: > 1 µM
Second compound 3.16 µM
  IC50: > 1 µM
Second compound 10 µM
  IC50: > 1 µM
Second compound 0.0316 µM, first compound 0.00316 µM
  viability, T/C: 101%
Second compound 0.0316 µM, first compound 0.01 µM
  viability, T/C: 101%
[1]
  viability, T/C: 112%
[2]
  viability, T/C: 119%
[3]
  viability, T/C: 127%
[4]
  viability, T/C: 127%
Second compound 0.1 µM, first compound 0.00316 µM
  viability, T/C: 125%
Second compound 0.1 µM, first compound 0.01 µM
  viability, T/C: 95.5%
[5]
  viability, T/C: 107%
[6]
  viability, T/C: 106%
[7]
  viability, T/C: 135%
[8]
  viability, T/C: 126%
Second compound 0.316 µM, first compound 0.00316 µM
  viability, T/C: 105%
Second compound 0.316 µM, first compound 0.01 µM
  viability, T/C: 108%
[9]
  viability, T/C: 109%
[10]
  viability, T/C: 121%
[11]
  viability, T/C: 117%
[12]
  viability, T/C: 129%
Second compound 1 µM, first compound 0.00316 µM
  viability, T/C: 97.3%
Second compound 1 µM, first compound 0.01 µM
  viability, T/C: 100%
[13]
  viability, T/C: 96.7%
[14]
  viability, T/C: 103%
[15]
  viability, T/C: 119%
[16]
  viability, T/C: 132%
Second compound 3.16 µM, first compound 0.00316 µM
  viability, T/C: 107%
Second compound 3.16 µM, first compound 0.01 µM
  viability, T/C: 112%
[17]
  viability, T/C: 103%
[18]
  viability, T/C: 118%
[19]
  viability, T/C: 134%
[20]
  viability, T/C: 131%
Second compound 10 µM, first compound 0.00316 µM
  viability, T/C: 90.2%
Second compound 10 µM, first compound 0.01 µM
  viability, T/C: 90.1%
[21]
  viability, T/C: 101%
[22]
  viability, T/C: 111%
[23]
  viability, T/C: 104%
[24]
  viability, T/C: 120%

## C[C@@H](NC(=O)c1ncnc(N)c1Cl)c1ncc(C(=O)Nc2cc(C(F)(F)F)c(Cl)cn2)s1 + C#Cc1c(F)ccc2cc(O)cc(-c3ncc4c(N5CC6CCC(C5)N6)nc(OCC56CCCN5CC(F)C6)nc4c3F)c12
Second compound 0.0316 µM
  IC50: > 10 µM
Second compound 0.1 µM
  IC50: > 10 µM
Second compound 0.316 µM
  IC50: > 10 µM
Second compound 1 µM
  IC50: > 10 µM
Second compound 3.16 µM
  IC50: > 10 µM
Second compound 10 µM
  IC50: > 10 µM
[1]
  viability, T/C: 121%
[2]
  viability, T/C: 99.5%
[3]
  viability, T/C: 89.2%
[4]
  viability, T/C: 86.5%
Second compound 0.0316 µM, first compound 3.16 µM
  viability, T/C: 87.1%
Second compound 0.0316 µM, first compound 10 µM
  viability, T/C: 78.5%
[5]
  viability, T/C: 103%
[6]
  viability, T/C: 111%
[7]
  viability, T/C: 88.7%
[8]
  viability, T/C: 76.7%
Second compound 0.1 µM, first compound 3.16 µM
  viability, T/C: 79.6%
Second compound 0.1 µM, first compound 10 µM
  viability, T/C: 93.5%
[9]
  viability, T/C: 105%
[10]
  viability, T/C: 112%
[11]
  viability, T/C: 84.8%
[12]
  viability, T/C: 91.2%
Second compound 0.316 µM, first compound 3.16 µM
  viability, T/C: 75.7%
Second compound 0.316 µM, first compound 10 µM
  viability, T/C: 71.7%
[13]
  viability, T/C: 104%
[14]
  viability, T/C: 86.6%
[15]
  viability, T/C: 94.1%
[16]
  viability, T/C: 67%
Second compound 1 µM, first compound 3.16 µM
  viability, T/C: 90.4%
Second compound 1 µM, first compound 10 µM
  viability, T/C: 77%
[17]
  viability, T/C: 79.9%
[18]
  viability, T/C: 101%
[19]
  viability, T/C: 104%
[20]
  viability, T/C: 77.5%
Second compound 3.16 µM, first compound 3.16 µM
  viability, T/C: 80.9%
Second compound 3.16 µM, first compound 10 µM
  viability, T/C: 80.3%
[21]
  viability, T/C: 91.3%
[22]
  viability, T/C: 102%
[23]
  viability, T/C: 91.9%
[24]
  viability, T/C: 85%
Second compound 10 µM, first compound 3.16 µM
  viability, T/C: 90.8%
Second compound 10 µM, first compound 10 µM
  viability, T/C: 86.9%

Reference: PubChem BioAssay AID2060905 (Molecular Pharmacology Branch, DTP, NCI, 2025)
